From the CheMixHub ionic liquid set
“And” between values parts separate entries of the source, which are not always exact repeats. Identical values can stand only once.

Assay: xn = mol fraction of the nth substance listed

OC[C@H]1O[C@H](O[C@H]2[C@H](O)[C@@H](O)C(O)O[C@@H]2CO)[C@H](O)[C@@H](O)[C@@H]1O (some centres undefined) + O + CCCC[n+]1ccn(C)c1.[Cl-]
298.15 K, 101.3 kPa
Conditions	electrical conductivity
x1 = 0.003591, x3 = 5.29e-06	0.00303 S/m
x1 = 0.003591, x3 = 8.39e-06	0.00457 S/m
x1 = 0.003591, x3 = 1.182e-05	0.00625 S/m
x1 = 0.003591, x3 = 1.516e-05	0.00787 S/m
x1 = 0.003591, x3 = 1.84e-05	0.00941 S/m
x1 = 0.003591, x3 = 2.179e-05	0.011 S/m
x1 = 0.003591, x3 = 2.475e-05	0.01239 S/m
x1 = 0.003591, x3 = 2.776e-05	0.0138 S/m
x1 = 0.003591, x3 = 3.087e-05	0.01519 S/m
x1 = 0.003591, x3 = 3.39e-05	0.0165 S/m
x1 = 0.003591, x3 = 3.679e-05	0.0179 S/m
x1 = 0.007156, x3 = 7.85e-06	0.00369 S/m
x1 = 0.007156, x3 = 1.182e-05	0.00532 S/m
x1 = 0.007156, x3 = 1.573e-05	0.00691 S/m
x1 = 0.007156, x3 = 1.984e-05	0.00855 S/m
x1 = 0.007156, x3 = 2.38e-05	0.01011 S/m
x1 = 0.007156, x3 = 2.785e-05	0.0117 S/m
x1 = 0.007156, x3 = 3.214e-05	0.01336 S/m
x1 = 0.007156, x3 = 3.627e-05	0.0149 S/m
x1 = 0.007156, x3 = 4.07e-05	0.0166 S/m
x1 = 0.007156, x3 = 4.483e-05	0.01815 S/m
x1 = 0.0107, x3 = 7.55e-06	0.0031 S/m
x1 = 0.0107, x3 = 1.145e-05	0.00447 S/m
x1 = 0.0107, x3 = 1.56e-05	0.0059 S/m
x1 = 0.0107, x3 = 1.953e-05	0.00725 S/m
x1 = 0.0107, x3 = 2.385e-05	0.0087 S/m
x1 = 0.0107, x3 = 2.86e-05	0.01028 S/m
x1 = 0.0107, x3 = 3.328e-05	0.0118 S/m
x1 = 0.0107, x3 = 3.79e-05	0.01332 S/m
x1 = 0.0107, x3 = 4.278e-05	0.0149 S/m
x1 = 0.0107, x3 = 4.74e-05	0.01635 S/m
x1 = 0.0107, x3 = 5.2e-05	0.0178 S/m
x1 = 0.01421, x3 = 1.044e-05	0.00364 S/m
x1 = 0.01421, x3 = 1.582e-05	0.0052 S/m
x1 = 0.01421, x3 = 2.09e-05	0.00666 S/m
x1 = 0.01421, x3 = 2.625e-05	0.00817 S/m
x1 = 0.01421, x3 = 3.215e-05	0.00982 S/m
x1 = 0.01421, x3 = 3.779e-05	0.01136 S/m
x1 = 0.01421, x3 = 4.365e-05	0.013 S/m
x1 = 0.01421, x3 = 4.958e-05	0.0146 S/m
x1 = 0.01421, x3 = 5.535e-05	0.01611 S/m
x1 = 0.0177, x3 = 7.16e-06	0.00235 S/m
x1 = 0.0177, x3 = 1.43e-05	0.00413 S/m
x1 = 0.0177, x3 = 2.14e-05	0.00587 S/m
x1 = 0.0177, x3 = 2.851e-05	0.0076 S/m
x1 = 0.0177, x3 = 3.535e-05	0.00922 S/m
x1 = 0.0177, x3 = 4.182e-05	0.0107 S/m
x1 = 0.0177, x3 = 4.861e-05	0.01232 S/m
x1 = 0.0177, x3 = 5.526e-05	0.0138 S/m
x1 = 0.0177, x3 = 6.177e-05	0.01534 S/m
x1 = 0.0177, x3 = 6.769e-05	0.0167 S/m
x1 = 0.0177, x3 = 7.386e-05	0.01804 S/m
x1 = 0.02116, x2 = 0.9788	0.0134 S/m and 0.0146 S/m and 0.0157 S/m

O=[N+]([O-])[O-].O=[N+]([O-])[O-].O=[N+]([O-])[O-].[Al+3] + O + CC[NH3+].O=[N+]([O-])[O-]
100 kPa
Conditions	electrical conductivity [S/m]	viscosity [mPa·s]
233 K, x1 = 0.1395, x2 = 0.5934	0.001	–
243 K, x1 = 0.1395, x2 = 0.5934	0.006	–
243 K, x1 = 0.2128, x2 = 0.7086	0.002	–
253 K, x1 = 0.1395, x2 = 0.5934	0.025	–
253 K, x1 = 0.2128, x2 = 0.7086	0.011	–
263 K, x1 = 0.1395, x2 = 0.5934	0.077	–
263 K, x1 = 0.2128, x2 = 0.7086	0.037	–
273 K, x1 = 0.1395, x2 = 0.5934	0.18	–
273 K, x1 = 0.2128, x2 = 0.7086	0.094	–
283 K, x1 = 0.1395, x2 = 0.5934	0.354	–
283 K, x1 = 0.2128, x2 = 0.7086	0.2	–
288.15 K, x1 = 0.1395, x2 = 0.5934	–	274
288.15 K, x1 = 0.2128, x2 = 0.7086	–	880
293 K, x1 = 0.1395, x2 = 0.5934	0.615	–
293 K, x1 = 0.2128, x2 = 0.7086	0.371	–
293.15 K, x1 = 0.1395, x2 = 0.5934	–	204
293.15 K, x1 = 0.2128, x2 = 0.7086	–	587
298.15 K, x1 = 0.1395, x2 = 0.5934	–	153.7
298.15 K, x1 = 0.2128, x2 = 0.7086	–	394
303 K, x1 = 0.1395, x2 = 0.5934	0.974	–
303 K, x1 = 0.2128, x2 = 0.7086	0.624	–
303.15 K, x1 = 0.1395, x2 = 0.5934	–	116.8
303.15 K, x1 = 0.2128, x2 = 0.7086	–	269
308.15 K, x1 = 0.1395, x2 = 0.5934	–	89.5
308.15 K, x1 = 0.2128, x2 = 0.7086	–	185
313 K, x1 = 0.1395, x2 = 0.5934	1.43	–
313 K, x1 = 0.2128, x2 = 0.7086	0.971	–
313.15 K, x1 = 0.1395, x2 = 0.5934	–	69.2
313.15 K, x1 = 0.2128, x2 = 0.7086	–	129.3
323 K, x1 = 0.1395, x2 = 0.5934	2	–
323 K, x1 = 0.2128, x2 = 0.7086	1.42	–
333 K, x1 = 0.1395, x2 = 0.5934	2.66	–
333 K, x1 = 0.2128, x2 = 0.7086	1.98	–
343 K, x1 = 0.1395, x2 = 0.5934	3.41	–
343 K, x1 = 0.2128, x2 = 0.7086	2.64	–
353 K, x1 = 0.1395, x2 = 0.5934	4.25	–
353 K, x1 = 0.2128, x2 = 0.7086	3.42	–
363 K, x1 = 0.1395, x2 = 0.5934	5.17	–
363 K, x1 = 0.2128, x2 = 0.7086	4.3	–
373 K, x1 = 0.1395, x2 = 0.5934	6.16	–
373 K, x1 = 0.2128, x2 = 0.7086	5.28	–

CCCC[n+]1ccn(C)c1.N#C[N-]C#N + O + NCCO
100 kPa, x1 = 0.2918, x2 = 0.2557
Conditions	viscosity [mPa·s]
303 K	11.73
308 K	9.99
313 K	8.59
318 K	7.46
323 K	6.53

CC[n+]1ccn(C)c1C.O=S(=O)([N-]S(=O)(=O)C(F)(F)F)C(F)(F)F + O=C1CCCO1
100 kPa, frequency 0.005 MHz
Conditions	electrical conductivity [S/m]
293.15 K, x2 = 0.3071	0.628
293.15 K, x2 = 0.7999	1.36
293.15 K, x2 = 0.9507	0.925
298.15 K, x2 = 0	0.383
298.15 K, x2 = 0.6999	1.42
298.15 K, x2 = 0.7999	1.52
308.15 K, x2 = 0.4996	1.34
308.15 K, x2 = 0.8999	1.72
313.15 K, x2 = 0.8999	1.84
318.15 K, x2 = 0.4996	1.69
323.15 K, x2 = 0	0.92
323.15 K, x2 = 0.0999	1.07
323.15 K, x2 = 0.5987	2.02
323.15 K, x2 = 0.8474	2.3
323.15 K, x2 = 0.9507	1.4

CC(=O)[O-].CC[n+]1ccn(C)c1 + O=C[C@H](O)[C@@H](O)[C@H](O)[C@H](O)CO
100 kPa
Conditions	viscosity [mPa·s]
282.5 K, x2 = 0.009453	407
282.5 K, x2 = 0.02839	517
312.5 K, x2 = 0.1429	419
332.2 K, x2 = 0.1429	123
373.1 K, x2 = 0.095	19
